Measurements from PubChem BioAssay (NCI).
Values joined by “and” are separate entries in the source; they are usually repeats but may differ in a detail not shown here. Identical values can stand only once.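 Grown in 96-well plates, cells were treated for 48 hours with each compound at five concentrations. Insufficient inhibition: endpoint recorded as highest concentration tested. GI50 marks 50% less growth. TGI marks complete inhibition of growth.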

How the values were obtained:
Test in all cases: NCI tumour cell line growth inhibition, 48 h
[1] = test system: 786-0 renal
[2] = test system: A498 renal
[3] = test system: HS 578T breast
[4] = test system: KM12 colon
[5] = test system: MALME-3M melanoma
[6] = test system: NCI-H226 lung
[7] = test system: OVCAR-8 ovarian
[8] = test system: SF-268 CNS
[9] = test system: T-47D breast
[10] = test system: UACC-62 melanoma

| Structure (SMILES) | TGI [1] | TGI [2] [µM] | TGI [3] | TGI [4] [µM] | TGI [5] | TGI [6] [µM] | TGI [7] | TGI [8] | TGI [9] | TGI [10] | GI50 [1] [µM] | GI50 [2] [µM] | GI50 [3] [µM] | GI50 [4] [µM] | GI50 [5] [µM] | GI50 [6] [µM] | GI50 [7] [µM] | GI50 [8] [µM] | GI50 [9] [µM] | GI50 [10] [µM] |
| --- | --- | --- | --- | --- | --- | --- | --- | --- | --- | --- | --- | --- | --- | --- | --- | --- | --- | --- | --- | --- |
| CCOC(=O)C1=C(C)NC(=O)NC1c1coc2cc(C)cc(C)c2c1=O (stereo not given) | > 100 µM | > 100 | > 100 µM | > 100 | > 100 µM | > 100 | > 100 µM | > 100 µM | > 100 µM | > 100 µM |  |  |  |  |  |  |  |  |  |  |
| COc1ccc2c(=O)c3cc([N+](=O)[O-])ccc3n(C)c2c1 | > 100 µM | > 100 | > 100 µM | > 100 | > 100 µM | > 100 | > 100 µM | > 100 µM | > 100 µM | > 100 µM |  |  |  |  |  |  |  |  |  |  |
| CCN(CC)C(=S)SC1CCOP(=O)(N(CCCl)CCCl)N1C (stereo not given) | > 80.1 µM | > 100 | > 100 µM | > 58.5 | 45.9 µM | > 97.3 | 49.2 µM | 98.6 µM | > 100 µM | 17.3 µM |  |  |  |  |  |  |  |  |  |  |
| COc1cc([C@@H]2c3cc4c(cc3[C@@H](O[C@@H]3O[C@@H]5CO[C@@H](c6cccs6)O[C@H]5[C@H](O)[C@H]3O)[C@H]3COC(=O)[C@H]23)OCO4)cc(OC)c1O | 1.34 µM | 2.2 | 15.3 µM | 4.34 | 5.02 µM | 0.742 | 2.51 µM | 7.2 µM | 12.3 µM | 3.3 µM | 0.193 | 0.284 | 2.03 | 0.634 | 0.435 | 0.152 | 0.34 | 0.266 | 0.207 | 0.233 |
| COc1cc([C@@H]2c3cc4c(cc3[C@H](O)[C@H]3COC(=O)[C@H]23)OCO4)cc(OC)c1OC | 1.08 µM and 0.5 µM and < 0.215 µM |  | > 100 µM and 50 µM and > 94 µM |  | > 100 µM and 50 µM |  | > 100 µM and 50 µM and > 7.6 µM | > 63.4 µM and 50 µM and > 39.2 µM | > 100 µM and 34.1 µM | > 100 µM and 34.7 µM | < 0.005 | < 0.01 | < 0.01 | < 0.01 |  | < 0.01 | < 0.01 | < 0.01 | > 84.5 | < 0.01 |
| N#Cc1c(NC(=O)CN2CCOCC2)sc2c1CCCC2 | > 25 µM | > 25 | > 25 µM | > 25 | > 25 µM | > 25 | > 25 µM | > 25 µM | > 25 µM | > 25 µM | > 25 | 3.2 | > 25 | > 25 | > 25 | > 25 | > 25 | > 25 | > 25 | > 25 |
| CCOC(=O)c1c(C)n2c(=O)cc(C)c3c(OC(C)=O)c(OC(C)=O)cc1c32 |  | 52.1 | > 65.2 µM | 29.4 | 35.5 µM | 35.7 | > 61.2 µM | > 74.1 µM | > 40.9 µM | 14.4 µM | 3.75 | 14 | 4.52 | 5.54 | 9.93 | 10.1 | 3.91 | 5.26 | 4.08 | 4.22 |
